The record followed here is ChEMBL document CHEMBL3046923, “Heteroaromatic analogues of 1,5-diarylpyrazole class as anti-inflammatory agents” (2012).

Broadly, the inhibition in vivo is the share of the control response that was lost under treatment.

Holding throughout (assay type): functional
Assay [1] has as its system Rattus norvegicus. In words: Anti-inflammatory activity in Rattus norvegicus Wistar albino (rat) assessed as inhibition of carrageenan-induced paw edema at 50 mg/kg, po administered for 30 min prior to carrageenan challenge measured at 1 hr relative to control.
Assay [2] has as its system Rattus norvegicus. In words: Anti-inflammatory activity in Rattus norvegicus Wistar albino (rat) assessed as inhibition of carrageenan-induced paw edema at 50 mg/kg, po administered for 30 min prior to carrageenan challenge measured at 2 hr relative to control. Background: Carrageenan injected into the paw causes an acute inflammation.
Assay [3] concerns Rattus norvegicus. In words: Anti-inflammatory activity in Rattus norvegicus Wistar albino (rat) assessed as inhibition of carrageenan-induced paw edema at 50 mg/kg, po administered for 30 min prior to carrageenan challenge measured at 4 hr relative to control.
Assay [4] relates to Rattus norvegicus. In words: Anti-inflammatory activity in Rattus norvegicus Wistar albino (rat) assessed as inhibition of carrageenan-induced paw edema at 50 mg/kg, po administered for 30 min prior to carrageenan challenge measured at 3 hr relative to control.
In assay [5] the test system is Rattus norvegicus. In words: Anti-inflammatory activity in Rattus norvegicus Wistar albino (rat) assessed as inhibition of carrageenan-induced paw edema at 10 mg/kg, ip administered for 30 min prior to carrageenan challenge measured at 4 hr relative to control. Conditions: route intraperitoneal.
The test system of assay [6] is Rattus norvegicus. In words: Anti-inflammatory activity in Rattus norvegicus Wistar albino (rat) assessed as inhibition of carrageenan-induced paw edema at 10 mg/kg, ip administered for 30 min prior to carrageenan challenge measured at 2 hr relative to control. Conditions: route intraperitoneal.
Assay [7] concerns Rattus norvegicus. In words: Anti-inflammatory activity in Rattus norvegicus Wistar albino (rat) assessed as inhibition of carrageenan-induced paw edema at 10 mg/kg, ip administered for 30 min prior to carrageenan challenge measured at 1 hr relative to control. Conditions: route intraperitoneal.
The subject of assay [8] is Rattus norvegicus. In words: Anti-inflammatory activity in Rattus norvegicus Wistar albino (rat) assessed as inhibition of carrageenan-induced paw edema at 10 mg/kg, ip administered for 30 min prior to carrageenan challenge measured at 3 hr relative to control. Conditions: route intraperitoneal.

Active and inactive are the calls of the source. The rule behind the calls is not given here.

Take `COc1ccc(-c2cc(C(F)(F)F)nn2-c2nc3ccc(S(N)(=O)=O)cc3s2)cc1`: the inhibition in vivo at 50 mg/kg in the assay on Rattus norvegicus [1] is 42%; in the assay on Rattus norvegicus [2], 31%; in the assay with Rattus norvegicus [3], 53%; with Rattus norvegicus [4], 60%.
In the case of `NS(=O)(=O)c1ccc2nc(-n3nc(C(F)(F)F)cc3-c3cccs3)sc2c1`, the inhibition in vivo at 50 mg/kg in the assay with Rattus norvegicus [1] is 5%; with Rattus norvegicus [2] it was 26%; with Rattus norvegicus [3], 15%; in the assay with Rattus norvegicus [4], 49%.
Regarding `COc1ccc2c(c1)c(CC(=O)O)c(C)n2C(=O)c1ccc(Cl)cc1` [INDOMETHACIN], the inhibition in vivo at 10 mg/kg in the assay with Rattus norvegicus [5] is 75%; in the assay on Rattus norvegicus [6], 78%; with Rattus norvegicus [7], 70%; in the assay with Rattus norvegicus [8] it was 78%.
For the molecule `NS(=O)(=O)c1ccc2nc(-n3nc(C(F)(F)F)cc3-c3ccc(F)cc3)sc2c1`, the inhibition in vivo at 50 mg/kg stood at 54% in the assay on Rattus norvegicus [1], 48% with Rattus norvegicus [2], 50% in the assay on Rattus norvegicus [3] and 64% in the assay on Rattus norvegicus [4].
For `NS(=O)(=O)c1ccc2nc(-n3nc(C(F)(F)F)cc3-c3ccc(Cl)cc3)sc2c1`, in that order: 44%, 42%, 42% and 61%.
The matching figures for `Cc1ccc(-c2cc(C(F)(F)F)nn2-c2nc3ccc(S(N)(=O)=O)cc3s2)cc1`: 35%, 38%, 52% and 56%.
As to `Cc1ccc(-c2cc(C(F)(F)F)n(-c3nc4ccc(S(N)(=O)=O)cc4s3)n2)cc1`, the inhibition result with Rattus norvegicus [1], in the assay on Rattus norvegicus [2], in the assay with Rattus norvegicus [3] and in the assay with Rattus norvegicus [4] was “inactive” each time.
For the molecule `NS(=O)(=O)c1ccc2nc(-n3nc(C(F)(F)F)cc3-c3ccco3)sc2c1`, the inhibition in vivo at 50 mg/kg came out at 27% in the assay on Rattus norvegicus [1], 46% in the assay with Rattus norvegicus [2], 54% in the assay on Rattus norvegicus [3] and 61% with Rattus norvegicus [4].
For `NS(=O)(=O)c1ccc2nc(-n3nc(C(F)(F)F)cc3-c3ccc4ccccc4c3)sc2c1`, in that order: 30%, 27%, 20% and 53%.
For `NS(=O)(=O)c1ccc2nc(-n3nc(C(F)(F)F)cc3-c3ccccc3)sc2c1`, in that order: 32%, 48%, 17% and 54%.
For `NS(=O)(=O)c1ccc2nc(-n3nc(C(F)(F)F)cc3-c3ccc(Br)cc3)sc2c1`, in that order: 45%, 56%, 43% and 60%.
